Test results from ChEMBL document CHEMBL1201862, “PubChem BioAssay data set” (2004).
Each block holds one molecule with its values, some of them ahead of it. Active and inactive are the calls of the source.

What was measured:
[1] = target: Cytochrome P450 2C9 (Homo sapiens, UniProt P11712)
[2] = tested on: BJ; assay: cytotoxicity toward BJ-TERT-LT-ST fibroblasts, dose response, cell-based, RAS-independent, luminescence (AID 1935); type: functional; conditions: Homo sapiens;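 also: BJ fibroblasts immortalized with TERT plus LT and ST oncogenes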
[3] = growth suppression of beta-catenin-knockout colon cells, dose response, cell-based, HCT116, human colon tumor (AID 1045); type: functional;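 also: HCT116 colon tumor cells with beta catenin knocked out; cells exposed to compound for 60 hours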
[4] = tested on: BJ; assay: cells; type: functional, cell-based; conditions: Homo sapiens
[5] = tested on: BJ; assay: cytotoxicity toward BJ-TERT fibroblasts, dose response, cell-based, RAS-independent, luminescence (AID 1933); type: functional; conditions: Homo sapiens
[6] = cytotoxicity toward DRD oncogenic fibroblasts, dose response, cell-based, non-viral oncogenic, luminescence (AID 1934); type: functional; conditions: Homo sapiens
[7] = growth suppression of PTEN-null colon cells, dose response, cell-based, HCT116 PTEN knockout (AID 1047); type: functional;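 also: HCT116 colon tumor cells with PTEN knocked out; cells exposed to compound for 60 hours before readout; potency for loss of cell viability measured by luminescence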
[8] = cells; type: functional, cell-based
[9] = cells; type: functional, cell-based; remark: listed apart in the source
[10] = target: T1, Calpain-2 catalytic subunit (Sus scrofa, UniProt P43367); assay: pig calpain II inhibitor potency, dose response, biochemical, fluorogenic peptide substrate (AID 1420); type: functional
T1 sequence (P43367 whole entry): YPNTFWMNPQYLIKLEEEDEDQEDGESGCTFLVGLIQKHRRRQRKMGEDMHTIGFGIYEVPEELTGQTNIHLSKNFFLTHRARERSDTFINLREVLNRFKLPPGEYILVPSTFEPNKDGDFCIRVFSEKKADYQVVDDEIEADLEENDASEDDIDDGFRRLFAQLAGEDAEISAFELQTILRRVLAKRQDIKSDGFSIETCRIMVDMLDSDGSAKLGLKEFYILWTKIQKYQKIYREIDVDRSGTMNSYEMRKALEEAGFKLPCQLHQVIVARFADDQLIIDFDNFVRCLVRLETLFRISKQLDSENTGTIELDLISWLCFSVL

[11] = target: T2, Heat shock factor protein 1 (Mus musculus, UniProt P38532); assay: inhibition of MG132-induced HSE-luciferase signal, confirmation, cell-based, NIH3T3, luminescence, dose retest (AID 2382); type: functional;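 also: NIH3T3 fibroblasts with HSF1-driven luciferase reporter stressed by proteasome inhibitor MG132; luminescence from HSF1-driven luciferase expression after 8 hours of MG132 stress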
T2 sequence (P38532 whole entry): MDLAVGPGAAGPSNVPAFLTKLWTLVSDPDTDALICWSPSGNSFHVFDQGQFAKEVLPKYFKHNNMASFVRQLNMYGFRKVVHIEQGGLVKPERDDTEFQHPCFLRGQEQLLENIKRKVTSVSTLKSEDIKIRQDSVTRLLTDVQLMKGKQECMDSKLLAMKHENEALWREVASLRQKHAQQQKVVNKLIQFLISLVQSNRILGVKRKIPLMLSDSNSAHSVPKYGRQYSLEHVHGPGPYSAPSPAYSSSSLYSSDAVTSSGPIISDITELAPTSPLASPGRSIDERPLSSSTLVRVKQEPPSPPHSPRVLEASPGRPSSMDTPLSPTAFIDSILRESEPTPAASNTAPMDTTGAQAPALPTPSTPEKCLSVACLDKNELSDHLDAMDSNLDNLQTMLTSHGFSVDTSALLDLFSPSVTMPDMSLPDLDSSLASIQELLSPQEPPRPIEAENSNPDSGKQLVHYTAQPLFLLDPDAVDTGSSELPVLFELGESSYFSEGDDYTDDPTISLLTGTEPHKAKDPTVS

[12] = Luminescence Cell-Based Dose Confirmation HTS to Identify Inhibitors of Platelet Dense Granule Release. [Related pubchem assays: 1663 (Primary HTS), 1678 (Summary of Project)]; type: functional
[13] = cytotoxicity toward NIH3T3 fibroblasts, dose response, counter-screen, cell-based, ATP luminescence, mouse fibroblasts (AID 2010); type: functional;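 also: cells exposed to compound for about 90 hours before reading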
[14] = target: Luciferin 4-monooxygenase (Photinus pyralis, UniProt P08659); assay: firefly luciferase enzyme inhibitors, dose response, biochemical, luminescence (AID 1891)
Sequence of Luciferin 4-monooxygenase (P08659 whole entry): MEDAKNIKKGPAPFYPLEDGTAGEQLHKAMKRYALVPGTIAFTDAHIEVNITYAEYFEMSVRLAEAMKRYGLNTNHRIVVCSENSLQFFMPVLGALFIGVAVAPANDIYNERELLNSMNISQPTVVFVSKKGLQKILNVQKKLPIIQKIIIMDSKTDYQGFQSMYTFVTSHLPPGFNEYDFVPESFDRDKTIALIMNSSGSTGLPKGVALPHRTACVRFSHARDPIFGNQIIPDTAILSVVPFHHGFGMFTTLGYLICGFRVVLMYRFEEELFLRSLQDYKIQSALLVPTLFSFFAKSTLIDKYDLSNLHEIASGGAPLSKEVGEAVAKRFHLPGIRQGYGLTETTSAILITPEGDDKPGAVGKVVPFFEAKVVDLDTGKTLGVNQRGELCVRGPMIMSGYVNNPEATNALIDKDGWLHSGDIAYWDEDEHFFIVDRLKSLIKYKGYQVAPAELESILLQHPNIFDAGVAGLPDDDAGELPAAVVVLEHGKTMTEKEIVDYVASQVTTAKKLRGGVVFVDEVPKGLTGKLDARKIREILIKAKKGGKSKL

[15] = inhibitors of intracellular T. cruzi replication, confirmation, NIH3T3 host cells, beta-gal luminescence (AID 2044); type: functional, cell-based;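 also: intracellular parasites grown in NIH/3T3 mouse fibroblasts as host cells; luminescent beta-galactosidase reporter signal from transgenic T. cruzi replicating inside host cells; inhibitors lower the luminescence signal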
[16] = HepG2 cell cytotoxicity, dose response, cytotoxicity control for Shn3 inhibitor project, CellTiter-Glo, cherry-picked (AID 624134); type: functional, cell-based
[17] = Shn3 3'UTR reporter inhibitors, dose response, cell-based, Clone20 osteoblasts, firefly luciferase, cherry-picked (AID 624132); type: functional;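 also: firefly luciferase luminescence from reporter carrying the Shn3 3'UTR in osteoblasts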
[18] = control 3'UTR Renilla luciferase suppression, dose response, counter-screen for Shn3 inhibitor project, cell-based, Clone20-Shn3RL, cherry-picked (AID 624133); type: functional
[19] = target: Cytochrome P450 3A4 (Homo sapiens, UniProt P08684);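 also: CYP3A4 tested as one member of a cytochrome P450 panel screen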
Sequence of Cytochrome P450 3A4 (P08684 whole entry): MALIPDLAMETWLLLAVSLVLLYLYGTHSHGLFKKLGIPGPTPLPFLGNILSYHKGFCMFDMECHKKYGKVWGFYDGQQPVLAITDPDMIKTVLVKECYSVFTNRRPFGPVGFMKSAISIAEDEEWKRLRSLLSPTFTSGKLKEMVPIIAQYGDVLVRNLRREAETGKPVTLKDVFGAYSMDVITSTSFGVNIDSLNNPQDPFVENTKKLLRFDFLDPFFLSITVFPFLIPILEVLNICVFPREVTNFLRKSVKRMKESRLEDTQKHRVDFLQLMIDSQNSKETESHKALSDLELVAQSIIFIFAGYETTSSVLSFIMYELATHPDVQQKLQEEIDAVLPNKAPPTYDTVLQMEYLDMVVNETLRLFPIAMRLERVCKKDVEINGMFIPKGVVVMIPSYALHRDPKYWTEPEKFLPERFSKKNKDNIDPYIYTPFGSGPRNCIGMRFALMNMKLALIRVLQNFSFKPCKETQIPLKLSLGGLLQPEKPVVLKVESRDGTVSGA

[20] = target: Cytochrome P450 2C19 (Homo sapiens, UniProt P33261); assay: Cytochrome panel assay with activity outcomes. Panel member name: p450-cyp2c19 Compounds with AC50 equal or less than 10 uM are considered active; type: functional; conditions: read-out: AC50
Sequence of Cytochrome P450 2C19 (P33261 whole entry, the tested form may be a part): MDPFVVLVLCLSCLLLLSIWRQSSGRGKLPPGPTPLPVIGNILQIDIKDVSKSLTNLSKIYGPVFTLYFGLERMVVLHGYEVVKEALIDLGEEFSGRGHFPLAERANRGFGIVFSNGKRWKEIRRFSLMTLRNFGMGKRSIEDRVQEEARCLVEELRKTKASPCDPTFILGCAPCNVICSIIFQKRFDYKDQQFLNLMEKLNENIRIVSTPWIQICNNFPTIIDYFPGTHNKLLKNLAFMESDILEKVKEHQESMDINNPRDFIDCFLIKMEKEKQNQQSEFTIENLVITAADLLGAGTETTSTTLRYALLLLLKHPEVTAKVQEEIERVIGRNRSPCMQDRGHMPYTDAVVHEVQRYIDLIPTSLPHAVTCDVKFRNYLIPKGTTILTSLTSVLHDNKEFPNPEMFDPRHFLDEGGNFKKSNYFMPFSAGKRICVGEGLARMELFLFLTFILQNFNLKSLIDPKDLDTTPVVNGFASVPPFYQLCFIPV

[21] = inhibitors of HIV Env-driven cell fusion, dose response, cherry-pick (AID 652057); type: functional, cell-based
[22] = inhibitors of clade B AD8 Env fusion, dose response, cell-based, cherry-pick (AID 652062); type: functional;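 also: luciferase signal from cell-cell fusion driven by HIV-1 clade B AD8 Env; potency is for inhibitors of fusion seen as a drop in luminescence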
[23] = target: Paired box protein Pax-8 (Homo sapiens, UniProt Q06710); assay: inhibitors of PAX8-driven TPO luciferase reporter, dose response, RMG-I cells, cherry-pick (AID 687027); type: functional, cell-based;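 also: luciferase reporter driven by Pax8 target thyroperoxidase promoter measured by SteadyGlo luminescence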
Sequence of Paired box protein Pax-8 (Q06710 whole entry): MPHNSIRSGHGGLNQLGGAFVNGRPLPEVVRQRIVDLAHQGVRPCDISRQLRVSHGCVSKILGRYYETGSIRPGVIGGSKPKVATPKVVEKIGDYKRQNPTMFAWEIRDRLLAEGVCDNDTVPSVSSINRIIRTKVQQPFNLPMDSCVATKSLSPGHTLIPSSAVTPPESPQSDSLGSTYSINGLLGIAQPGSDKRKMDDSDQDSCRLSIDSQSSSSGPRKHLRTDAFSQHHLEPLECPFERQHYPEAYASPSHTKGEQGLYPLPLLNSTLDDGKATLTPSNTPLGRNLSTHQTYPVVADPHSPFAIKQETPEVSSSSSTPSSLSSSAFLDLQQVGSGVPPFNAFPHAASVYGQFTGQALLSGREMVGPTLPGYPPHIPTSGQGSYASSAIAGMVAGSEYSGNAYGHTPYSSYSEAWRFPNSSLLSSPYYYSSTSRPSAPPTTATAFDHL

Sequence of Cytochrome P450 2C9 (P11712 whole entry): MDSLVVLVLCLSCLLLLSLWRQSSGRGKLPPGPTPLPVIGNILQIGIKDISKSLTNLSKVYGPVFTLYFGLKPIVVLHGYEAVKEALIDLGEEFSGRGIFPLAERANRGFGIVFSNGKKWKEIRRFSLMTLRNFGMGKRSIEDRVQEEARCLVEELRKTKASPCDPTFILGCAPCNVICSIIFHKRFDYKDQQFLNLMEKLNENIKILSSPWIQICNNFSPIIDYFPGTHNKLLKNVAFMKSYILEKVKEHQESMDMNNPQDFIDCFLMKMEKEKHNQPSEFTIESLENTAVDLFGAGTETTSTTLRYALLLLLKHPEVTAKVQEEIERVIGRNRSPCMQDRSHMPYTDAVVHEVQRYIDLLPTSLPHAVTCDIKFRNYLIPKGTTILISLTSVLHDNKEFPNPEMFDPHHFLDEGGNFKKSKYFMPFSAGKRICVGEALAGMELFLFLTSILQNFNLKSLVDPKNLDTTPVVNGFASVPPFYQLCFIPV

- AC50 [1]: inconclusive
SMILES: CNc1nc(C)cc(C)c1S(=O)(=O)c1ccc(C)cc1

SMILES: COc1cc(C(=O)N2CCN(c3ccc(C)cc3C)CC2)cc(OC)c1OC
- EC50 [2]: 21.8 µM (inconclusive)
- EC50 [3]: 3.45 µM (active)
- EC50 [4]: 138 µM (inconclusive)
- EC50 [5]: 11.9 µM (active)
- EC50 [6]: 3.97 µM (active)
- EC50 [7]: 2.65 µM (active)

SMILES: COC(=O)CN1C(=O)[C@H]2[C@@H](c3ccc(C)o3)N3C(=O)CN(CC4CC4)C(=O)[C@@]3(Cc3ccccc3)[C@H]2C1=O
- EC50 [8]: > 350 µM (not active)
- EC50 [9]: > 350 µM (not active)

SMILES: O=C(Cc1ccc(Br)cc1)NCc1ccccc1
- EC50 [2]: 45.4 µM (inconclusive)
- EC50 [4]: 56.3 µM (inconclusive)
- EC50 [5]: 11.9 µM (active)
- EC50 [6]: 4.57 µM (active)

- IC50 [10]: 3.87 µM (not active)
- EC50 [11]: > 195 µM (not active)
SMILES: COc1cccc(CN(C)CC(=O)Nc2cccc(C(F)(F)F)c2)c1OC

SMILES: C=CCOC(=O)C(C#N)c1nc2ccccc2nc1N1CCN(Cc2ccc3c(c2)OCO3)CC1 (stereo unspecified)
- EC50 [12]: > 112 µM (not active)
- EC50 [13]: > 60 µM (not active)
- EC50 [14]: 69.2 µM (active)
- EC50 [15]: 1.18 µM (active)

SMILES: Cc1cccc(Cn2c(NCCO)nc3c2c(=O)n(C)c(=O)n3C)c1
- AC50 [16]: 2.83 µM (active)
- AC50 [17]: 0.528 µM (active)
- AC50 [18]: 2.12 µM (active)

- AC50 [19]: 3.55 µM (inconclusive)
- AC50 [1]: inconclusive
SMILES: O=C(NNC(=O)C1CCN(S(=O)(=O)c2ccc(Cl)cc2)CC1)c1ccc(Cl)cc1

SMILES: O=S(=O)(c1ccccc1)N1CCCCC1c1cccnc1 (stereo unspecified)
- AC50 [1]: inconclusive

- AC50 [20]: 31.6 µM (inconclusive)
- AC50 [1]: inconclusive
SMILES: CCCN(CCC)CCCNS(=O)(=O)c1cc(Br)cc2c1N(C(C)=O)CC2

SMILES: C[C@H](CO)N1C[C@H](C)[C@H](CN(C)S(=O)(=O)c2ccccc2)Oc2ccc(NC(=O)Cc3ccccc3)cc2CC1=O
- AC50 [21]: < 0.26 µM (active)
- AC50 [22]: < 0.26 µM (active)

- AC50 [23]: 4.78 µM (active)
SMILES: COc1ccc(S(=O)(=O)Nc2ccc3c(c2)C(=O)N([C@H](C)CO)C[C@H](C)[C@H](CN(C)S(=O)(=O)c2ccc(F)cc2)OCCCC[C@H](C)O3)cc1

- AC50 [20]: 11.2 µM (inconclusive)
- AC50 [19]: 12.6 µM (inconclusive)
- AC50 [1]: inconclusive
SMILES: O=C(O/N=C\c1ccc(N2CCCCC2)c([N+](=O)[O-])c1)c1c(F)cccc1F

SMILES: COc1cc(N/N=C/c2ccc(N(C)C)cc2)ncn1
- EC50 [12]: 0.989 µM (active)
- EC50 [14]: 2.9 µM (active)

- AC50 [1]: inconclusive
SMILES: CC(=O)Nc1ccc(S(=O)(=O)c2ccc(N)cc2)cc1 [MONO-N-ACETYL DAPSONE]
